Measurements reported in ChEMBL document CHEMBL5352386 (Eur J Med Chem, 2022).
Activity calls are given as the source filed them. No cut-off for these calls is given here.

Tests used:
[1] = Cytotoxicity against mouse BV-2 cells assessed as inhibition of cell growth measured after 24 hrs by MTT assay; type: toxicity, cell-based
Cholinesterase [2] = molecular target: Cholinesterase (Homo sapiens, UniProt P06276); assay: Inhibition of human BuChE using butyrylthiocholine iodide as substrate incubated for 10 mins followed by substrate addition by DTNB-reagent based Ellman's colorimetric assay
Sequence of Cholinesterase (Homo sapiens, UniProt P06276) (P06276 whole entry): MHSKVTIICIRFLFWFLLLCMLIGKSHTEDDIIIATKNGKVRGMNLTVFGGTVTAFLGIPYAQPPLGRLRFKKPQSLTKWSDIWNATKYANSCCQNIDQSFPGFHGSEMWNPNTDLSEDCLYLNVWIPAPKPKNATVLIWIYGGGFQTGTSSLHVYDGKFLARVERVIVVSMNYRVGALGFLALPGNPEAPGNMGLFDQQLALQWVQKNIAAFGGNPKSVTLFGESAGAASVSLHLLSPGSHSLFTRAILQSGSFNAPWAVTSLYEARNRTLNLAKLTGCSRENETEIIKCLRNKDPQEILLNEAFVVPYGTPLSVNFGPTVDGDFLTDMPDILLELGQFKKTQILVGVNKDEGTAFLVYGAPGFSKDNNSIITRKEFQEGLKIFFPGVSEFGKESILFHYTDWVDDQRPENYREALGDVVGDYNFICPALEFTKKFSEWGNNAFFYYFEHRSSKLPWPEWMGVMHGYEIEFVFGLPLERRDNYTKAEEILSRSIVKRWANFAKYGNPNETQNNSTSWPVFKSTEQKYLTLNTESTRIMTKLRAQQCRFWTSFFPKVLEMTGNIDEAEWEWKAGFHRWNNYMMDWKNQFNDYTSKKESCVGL

SH-SY5Y [3] = assay: Cytotoxicity against human SH-SY5Y cells assessed as survival rate at 2.5 uM measured after 24 hrs by MTT assay relative to control; type: functional; details: read-out: Survival
L02 [4] = assay: Cytotoxicity against human L02 cells assessed as survival rate at 100 uM measured after 24 hrs by MTT assay relative to control; type: functional; details: read-out: Survival
PC-12 [5] = assay: Cytotoxicity against rat PC12 cells assessed as survival rate at 100 uM measured after 24 hrs by MTT assay relative to control; details: PC-12, 24 h, read-out: Survival
Cholinesterase [6] = molecular target: Cholinesterase (Equus caballus, UniProt P81908); assay: Inhibition of equine serum BuChE using butyrylthiocholine iodide as substrate incubated for 10 mins followed by substrate addition by DTNB-reagent based Ellman's colorimetric assay
Sequence of Cholinesterase (Equus caballus, UniProt P81908) (P81908 whole entry): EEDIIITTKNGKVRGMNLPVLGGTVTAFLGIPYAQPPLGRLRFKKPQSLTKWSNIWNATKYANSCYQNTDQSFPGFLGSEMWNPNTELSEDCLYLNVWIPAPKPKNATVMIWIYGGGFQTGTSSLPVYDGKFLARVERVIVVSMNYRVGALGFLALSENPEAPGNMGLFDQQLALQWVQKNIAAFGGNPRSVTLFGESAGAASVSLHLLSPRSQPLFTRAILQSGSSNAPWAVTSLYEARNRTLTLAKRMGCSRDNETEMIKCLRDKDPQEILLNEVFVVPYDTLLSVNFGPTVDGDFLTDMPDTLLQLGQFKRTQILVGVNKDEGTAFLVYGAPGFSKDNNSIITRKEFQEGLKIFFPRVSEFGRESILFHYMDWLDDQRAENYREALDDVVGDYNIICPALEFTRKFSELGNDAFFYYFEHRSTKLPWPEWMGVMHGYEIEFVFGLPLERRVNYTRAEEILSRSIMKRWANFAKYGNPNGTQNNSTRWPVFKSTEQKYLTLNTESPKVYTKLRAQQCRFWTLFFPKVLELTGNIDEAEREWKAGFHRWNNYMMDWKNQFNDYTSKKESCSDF

PC-12 [7] = assay: Cytotoxicity against rat PC12 cells assessed as inhibition of cell growth measured after 24 hrs by MTT assay; type: functional, cell-based; details: PC-12, 24 h
[8] = Cytotoxicity against mouse BV-2 cells assessed as survival rate at 100 uM measured after 24 hrs by MTT assay relative to control; type: toxicity, cell-based; details: read-out: Survival
Mus musculus [9] = assay: Neuroprotective activity against Abeta42 induced cognition impairement in AD mouse model assessed as reduction in confusion of escape trajectory at 10 mg/kg, po measured after 14 days; type: functional, organism-based; details: time 14.0 day
Mus musculus [10] = assay: Neuroprotective activity against Abeta42 induced cognition impairement in AD mouse model assessed as reduction in latency time to platform at 10 mg/kg, po measured after 14 days by Morris water maze analysis; type: functional, organism-based; details: time 14.0 day
SH-SY5Y [11] = assay: Cytotoxicity against human SH-SY5Y cells assessed as inhibition of cell growth measured after 24 hrs by MTT assay; type: functional, cell-based
L02 [12] = assay: Cytotoxicity against human L02 cells assessed as inhibition of cell growth measured after 24 hrs by MTT assay; type: functional, cell-based; details: L02, 24 h
SH-SY5Y [13] = assay: Cytotoxicity against human SH-SY5Y cells assessed as survival rate at 100 uM measured after 24 hrs by MTT assay relative to control; type: functional; details: read-out: Survival
L02 [14] = assay: Cytotoxicity against human L02 cells assessed as survival rate at 2.5 uM measured after 24 hrs by MTT assay relative to control; type: functional; details: read-out: Survival

Structure (SMILES) | IC50 at 24 h [1] [nM] | IC50 (Cholinesterase [2]) [nM] | viability at 2.5 µM (SH-SY5Y [3]) [%] | viability at 100 µM (L02 [4]) [%] | viability at 100 µM (PC-12 [5]) [%] | IC50 (Cholinesterase [6]) [nM] | IC50 (PC-12 [7]) [nM] | viability at 24 h, 100 µM [8] [%] | Activity (Mus musculus [9]) | Activity (Mus musculus [10]) | IC50 (SH-SY5Y [11]) [nM] | IC50 (L02 [12]) [nM] | viability at 100 µM (SH-SY5Y [13]) [%] | viability at 2.5 µM (L02 [14]) [%]
Nc1nonc1-c1nc2ccccc2n1CC(=O)Nc1ccc(F)cc1Br | 730 | 35.7 | 22.4 | 89 | 86.6 | 119 | – | – | – | – | – | – | – | –
Nc1nonc1-c1nc2ccccc2n1CC(=O)Nc1cc(Br)cc(Br)c1 | – | 27.9 | 27.3 | 85.3 | – | 3.84 | 6560 | 52 | – | – | – | – | – | –
Nc1nonc1-c1nc2ccccc2n1CC(=O)Nc1cc(C(F)(F)F)cc(C(F)(F)F)c1 | – | 935 | 46.1 | 74.2 | 50.2 | 7.72 | – | 100 | – | – | – | – | – | –
Nc1nonc1-c1nc2ccccc2n1CC(=O)Nc1cc(Cl)cc(Br)c1 | – | 75.7 | 43.6 | 80.3 | – | 1.61 | 37800 | 59.9 | – | – | – | – | – | –
COc1cc2c(cc1OC)C(=O)C(CC1CCN(Cc3ccccc3)CC1)C2 (centres undefined) | – | – | – | – | – | – | – | – | Active | Active | – | – | – | –
Cc1cc(C)cc(NC(=O)Cn2c(-c3nonc3N)nc3ccccc32)c1 | – | 885 | – | 85.9 | 69.7 | 13 | – | 85.9 | – | – | 7500 | – | – | –
Cc1cc(Cl)cc(NC(=O)Cn2c(-c3nonc3N)nc3ccccc32)c1 | – | 101 | 32.1 | 65.9 | 54.3 | 9.16 | – | 56.3 | – | – | – | – | – | –
Nc1nonc1-c1nc2ccccc2n1CC(=O)Nc1cc(Cl)cc(Cl)c1 | – | 30.4 | 45.8 | 94.2 | – | 4.27 | 13600 | 52.1 | – | – | – | – | – | –
COc1cc(NC(=O)Cn2c(-c3nonc3N)nc3ccccc32)cc(OC)c1 | 6300 | 309 | 24.6 | 72.8 | 88.8 | 107 | – | – | – | – | – | – | – | –
Cc1cc(NC(=O)Cn2c(-c3nonc3N)nc3ccccc32)cc([N+](=O)[O-])c1 | – | 278 | – | 79.1 | – | 47.6 | 28800 | 79.8 | – | – | 58900 | – | – | –
Nc1nonc1-c1nc2ccccc2n1CC(=O)Nc1cc([N+](=O)[O-])cc(C(F)(F)F)c1 | – | 71.6 | – | 57.5 | – | 0.35 | 18000 | 57.5 | – | – | 15400 | – | – | –
Nc1nonc1-c1nc2ccccc2n1CC(=O)Nc1ccc([N+](=O)[O-])c(Br)c1 | 5490 | 730 | – | – | 51.4 | 33.7 | – | – | – | – | – | 5490 | 70.5 | –
Nc1nonc1-c1nc2ccccc2n1CC(=O)Nc1cc(F)cc(Cl)c1 | – | 155 | 28.1 | 91.7 | 58 | 5.32 | – | 111 | – | – | – | – | – | –
Nc1nonc1-c1nc2ccccc2n1CC(=O)Nc1ccc([N+](=O)[O-])c(Cl)c1 | – | 749 | – | 52.6 | – | 11 | 27800 | 52.6 | – | – | 24900 | – | – | –
Nc1nonc1-c1nc2ccccc2n1CC(=O)Nc1cc(F)cc(Br)c1 | – | 62.2 | 44.2 | 88.4 | 88.3 | 14.3 | – | 88.4 | – | – | – | – | – | –
Nc1nonc1-c1nc2ccccc2n1CC(=O)Nc1cc(Cl)cc(C(F)(F)F)c1 | – | 113 | – | – | – | 2.63 | 46200 | 90 | – | – | 10600 | 2480 | – | –
Nc1nonc1-c1nc2ccccc2n1CC(=O)Nc1cc(F)cc(F)c1 | 25400 | 3680 | – | 60.6 | 84.4 | 58 | – | – | – | – | – | – | 56.2 | –
Cc1cc(F)cc(NC(=O)Cn2c(-c3nonc3N)nc3ccccc32)c1 | – | 453 | 26.3 | 80 | 75.8 | 57.8 | – | 97.5 | – | – | – | – | – | –
Cc1cc(Br)cc(NC(=O)Cn2c(-c3nonc3N)nc3ccccc32)c1 | – | 218 | 31 | 71.4 | 58.9 | 6.38 | – | 92.6 | – | – | – | – | – | –
Nc1nonc1-c1nc2ccccc2n1CC(=O)Nc1cc(Br)cc(C(F)(F)F)c1 | – | 12.4 | 44.7 | 75.8 | – | 4.21 | 11400 | 56.3 | – | – | – | – | – | –
COC(=O)c1cc(NC(=O)Cn2c(-c3nonc3N)nc3ccccc32)cc(C(=O)OC)c1 | 40400 | 222 | – | 84 | 50.5 | 1.48 | – | – | – | – | 58000 | – | – | –
Cc1ccc2cc(NC(=O)Cn3c(-c4nonc4N)nc4ccccc43)ccc2n1 | – | – | – | 61.5 | – | – | – | – | – | – | – | – | – | –
N#Cc1cc(Cl)cc(NC(=O)Cn2c(-c3nonc3N)nc3ccccc32)c1 | – | 83.9 | 24.6 | – | 87 | 2.04 | – | 64.7 | – | – | – | – | – | 44.5
